How the values were obtained:
bedstraw = test: Test B pre/postemergence bedstraw; assay type: in vivo, Galium aparine
Outline: (§1)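 Herbicidal effect was estimated by eye on a ten-point control scale after plants spent twelve to sixteen days in a greenhouse following soil or foliar treatment. Foliar sprays targeted plants at one to four leaves; all doses were formulated in a non-phytotoxic solvent with surfactant.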

blackgrass = test: Test B pre/postemergence blackgrass; assay type: in vivo, Alopecurus myosuroides
Outline: as §1

surinam grass = test: Test B pre/postemergence surinam grass; assay type: in vivo, Brachiaria decumbens
Outline: as §1

corn = test: Test B pre/postemergence corn; assay type: in vivo, Zea mays
Outline: as §1

crabgrass = test: Test B pre/postemergence crabgrass; assay type: in vivo, Digitaria sanguinalis
Outline: as §1

giant foxtail = test: Test B pre/postemergence giant foxtail; assay type: in vivo, Setaria faberii
Outline: as §1

morningglory = test: Test B pre/postemergence morningglory; assay type: in vivo, Ipomoea hederacea
Outline: as §1

pigweed = test: Test B pre/postemergence pigweed; assay type: in vivo, Amaranthus retroflexus
Outline: as §1

rape = test: Test B pre/postemergence rape; assay type: in vivo, Brassica napus
Outline: as §1

soybean = test: Test B pre/postemergence soybean; assay type: in vivo, Glycine max
Outline: as §1

velvetleaf = test: Test B pre/postemergence velvetleaf; assay type: in vivo, Abutilon theophrasti
Outline: as §1

wheat = test: Test B pre/postemergence wheat; assay type: in vivo, Triticum aestivum
Outline: as §1

wild oat = test: Test B pre/postemergence wild oat; assay type: in vivo, Avena fatua
Outline: as §1

purple nutsedge = test: Test B pre/postemergence purple nutsedge; assay type: in vivo, Cyperus rotundus
Outline: as §1

rice = test: Test B flood test rice; assay type: in vivo, Oryza sativa
Outline: (§2)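 Flood test on plants grown to the 2-leaf stage; treated plants kept in greenhouse twelve to sixteen days, then visually rated against controls on a 0 (no effect) to 10 (complete control) scale.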

duck salad = test: Test B flood test duck salad; assay type: in vivo, Heteranthera limosa
Outline: as §2

[1] = Preemergence, Rate 62 g/ha, scale of 0 to 10 where 0 is no effect and 10 is complete control
[2] = Preemergence, Rate 250 g/ha, scale of 0 to 10 where 0 is no effect and 10 is complete control
[3] = Preemergence, Rate 500 g/ha, scale of 0 to 10 where 0 is no effect and 10 is complete control
[4] = Rate 62 g/ha, Postemergence, scale of 0 to 10 where 0 is no effect and 10 is complete control
[5] = Rate 125 g/ha, Postemergence, scale 0 to 10
[6] = Rate 125 g/ha, Preemergence, scale of 0 to 10 where 0 is no effect and 10 is complete control
[7] = Rate 500 g/ha, Postemergence, scale 0 to 10, 0 no effect, 10 complete control
[8] = Rate 62 g/ha, headed Pre-emergence (flood test species), scale 0 to 10 (0 no effect, 10 complete control)
[9] = Rate 125 g/ha, Pre-emergence, flood test species, scale 0 to 10 where 0 is no effect and 10 is complete control
[10] = Rate 250 g/ha, Pre-emergence, flood-test species, scale 0 to 10, 0 is no effect, 10 is complete control
[11] = Rate 500 g/ha, Pre-emergence, flood test species, scale 0 to 10 (0 no effect, 10 complete control)

CCc1ccc(N(C(=O)n2oc(=O)n(-c3ccccc3C)c2=O)C(C)C)cc1 [Compound 230]
Bedstraw plant response rating (bedstraw; [1]): 0 | Bedstraw plant response rating (bedstraw; [2]): 0 | Plant response rating, Bedstraw (bedstraw; [3]): 0 | Bedstraw plant response rating (bedstraw; [4]): 0 | Bedstraw plant response rating (bedstraw; [5]): 0 | Bedstraw plant response rating (bedstraw; [6]): 0 | Plant response rating (0 to 10; 0 is no effect, 10 is complete control), Bedstraw (bedstraw; Rate 250 g/ha, Postemergence): 0 | Bedstraw plant response rating (bedstraw; [7]): 0 | Blackgrass plant response rating (blackgrass; [1]): 0 | Blackgrass plant response rating (blackgrass; [2]): 0 | Plant response rating, Blackgrass (blackgrass; [3]): 2 | Blackgrass plant response rating (blackgrass; [4]): 0 | Blackgrass plant response rating (blackgrass; [5]): 0 | Blackgrass plant response rating (blackgrass; [6]): 0 | Plant response rating (0 to 10; 0 is no effect, 10 is complete control), Blackgrass (blackgrass; Rate 250 g/ha, Postemergence): 0 | Blackgrass plant response rating (blackgrass; [7]): 0 | B. signalgrass plant response rating (surinam grass; [1]): 0 | B. signalgrass plant response rating (surinam grass; Preemergence, Rate 250 g/ha, scale 0 to 10, 0 is no effect, 10 is complete control): 0 | Plant response rating, B. signalgrass (surinam grass; [3]): 0 | B. signalgrass plant response rating (surinam grass; [4]): 0 | B. signalgrass plant response rating (surinam grass; Rate 125 g/ha, Postemergence, scale 0 (no effect) to 10 (complete control)): 0 | B. signalgrass plant response rating (surinam grass; [6]): 0 | Plant response rating (0 to 10; 0 is no effect, 10 is complete control), B. signalgrass (surinam grass; Rate 250 g/ha, Postemergence): 0 | B. signalgrass plant response rating (surinam grass; [7]): 0 | Corn plant response rating (corn; [1]): 0 | Corn plant response rating (corn; [2]): 0 | Plant response rating, Corn (corn; [3]): 0 | Corn plant response rating (corn; [4]): 0 | Corn plant response rating (corn; [5]): 0 | Corn plant response rating (corn; [6]): 0 | Plant response rating (0 to 10; 0 is no effect, 10 is complete control), Corn (corn; Rate 250 g/ha, Postemergence): 0 | Corn plant response rating (corn; [7]): 0 | Crabgrass plant response rating (crabgrass; [1]): 1 | Crabgrass plant response rating (crabgrass; [2]): 7 | Plant response rating, Crabgrass (crabgrass; [3]): 9 | Crabgrass plant response rating (crabgrass; [4]): 0 | Crabgrass plant response rating (crabgrass; [5]): 0 | Crabgrass plant response rating (crabgrass; [6]): 1 | Plant response rating (0 to 10; 0 is no effect, 10 is complete control), Crabgrass (crabgrass; Rate 250 g/ha, Postemergence): 0 | Crabgrass plant response rating (crabgrass; [7]): 2 | Giant foxtail plant response rating (giant foxtail; [1]): 2 | Giant foxtail plant response rating (giant foxtail; [2]): 8 | Plant response rating, Giant foxtail (giant foxtail; [3]): 9 | Giant foxtail plant response rating (giant foxtail; [4]): 0 | Giant foxtail plant response rating (giant foxtail; [5]): 0 | Giant foxtail plant response rating (giant foxtail; [6]): 2 | Plant response rating (0 to 10; 0 is no effect, 10 is complete control), Giant foxtail (giant foxtail; Rate 250 g/ha, Postemergence): 0 | Giant foxtail plant response rating (giant foxtail; [7]): 1 | Morningglory plant response rating (morningglory; [1]): 0 | Morningglory plant response rating (morningglory; [2]): 0 | Plant response rating, Morningglory (morningglory; [3]): 2 | Morningglory plant response rating (morningglory; [4]): 0 | Morningglory plant response rating (morningglory; [5]): 2 | Morningglory plant response rating (morningglory; [6]): 0 | Plant response rating (0 to 10; 0 is no effect, 10 is complete control), Morningglory (morningglory; Rate 250 g/ha, Postemergence): 2 | Morningglory plant response rating (morningglory; [7]): 7 | Redroot pigweed plant response rating (pigweed; [1]): 0 | Redroot pigweed plant response rating (pigweed; [2]): 0 | Plant response rating, Redroot pigweed (pigweed; [3]): 0 | Redroot pigweed plant response rating (pigweed; [4]): 0 | Redroot pigweed plant response rating (pigweed; [5]): 0 | Redroot pigweed plant response rating (pigweed; [6]): 0 | Plant response rating (0 to 10; 0 is no effect, 10 is complete control), Redroot pigweed (pigweed; Rate 250 g/ha, Postemergence): 0 | Redroot pigweed plant response rating (pigweed; [7]): 0 | Rape plant response rating (rape; [1]): 0 | Rape plant response rating (rape; [2]): 0 | Plant response rating, Rape (rape; [3]): 0 | Rape plant response rating (rape; [4]): 0 | Rape plant response rating (rape; [5]): 0 | Rape plant response rating (rape; [6]): 0 | Plant response rating (0 to 10; 0 is no effect, 10 is complete control), Rape (rape; Rate 250 g/ha, Postemergence): 0 | Rape plant response rating (rape; [7]): 0 | Soybean plant response rating (soybean; [1]): 0 | Soybean plant response rating (soybean; [2]): 0 | Plant response rating, Soybean (soybean; [3]): 0 | Soybean plant response rating (soybean; [4]): 0 | Soybean plant response rating (soybean; [5]): 0 | Soybean plant response rating (soybean; [6]): 0 | Plant response rating (0 to 10; 0 is no effect, 10 is complete control), Soybean (soybean; Rate 250 g/ha, Postemergence): 4 | Soybean plant response rating (soybean; [7]): 5 | Velvetleaf plant response rating (velvetleaf; [1]): 0 | Velvetleaf plant response rating (velvetleaf; [2]): 0 | Plant response rating, Velvetleaf (velvetleaf; [3]): 0 | Velvetleaf plant response rating (velvetleaf; [4]): 0 | Velvetleaf plant response rating (velvetleaf; [5]): 0 | Velvetleaf plant response rating (velvetleaf; [6]): 0 | Plant response rating (0 to 10; 0 is no effect, 10 is complete control), Velvetleaf (velvetleaf; Rate 250 g/ha, Postemergence): 0 | Velvetleaf plant response rating (velvetleaf; [7]): 0 | Wheat plant response rating (wheat; [1]): 0 | Wheat plant response rating (wheat; [2]): 0 | Plant response rating, Wheat (wheat; [3]): 0 | Wheat plant response rating (wheat; [4]): 0 | Wheat plant response rating (wheat; [5]): 0 | Wheat plant response rating (wheat; [6]): 0 | Plant response rating (0 to 10; 0 is no effect, 10 is complete control), Wheat (wheat; Rate 250 g/ha, Postemergence): 0 | Wheat plant response rating (wheat; [7]): 0 | Wild oats plant response rating (wild oat; [1]): 0 | Wild oats plant response rating (wild oat; [2]): 0 | Plant response rating, Wild oats (wild oat; [3]): 0 | Wild oats plant response rating (wild oat; [4]): 0 | Wild oats plant response rating (wild oat; [5]): 0 | Wild oats plant response rating (wild oat; [6]): 0 | Plant response rating (0 to 10; 0 is no effect, 10 is complete control), Wild oats (wild oat; Rate 250 g/ha, Postemergence): 0 | Wild oats plant response rating (wild oat; [7]): 0 | Nutsedge plant response rating (purple nutsedge; [1]): 0 | Nutsedge plant response rating (purple nutsedge; [2]): 0 | Plant response rating, Nutsedge (purple nutsedge; [3]): 0 | Nutsedge plant response rating (purple nutsedge; [4]): 0 | Nutsedge plant response rating (purple nutsedge; [5]): 0 | Nutsedge plant response rating (purple nutsedge; [6]): 0 | Plant response rating (0 to 10; 0 is no effect, 10 is complete control), Nutsedge (purple nutsedge; Rate 250 g/ha, Postemergence): 0 | Nutsedge plant response rating (purple nutsedge; [7]): 0 | Rice plant response rating (rice; [8]): 0 | Rice plant response rating (rice; [9]): 0 | Rice plant response rating (rice; [10]): 0 | Rice plant response rating (rice; [11]): 0 | Ducksalad plant response rating (duck salad; [8]): 0 | Ducksalad plant response rating (duck salad; [9]): 0 | Ducksalad plant response rating (duck salad; [10]): 0 | Ducksalad plant response rating (duck salad; [11]): 0

Reference: patent US6737383B1, “Herbicidal oxadiazolidines” (priority 1999, dated 2004)
